One assay has as its system M. tuberculosis P2SP1. Kind of assay: Anti-mycobacterium in vitro activity, P2SP1. Format: cell-based, Mycobacterium tuberculosis. The note with it: Multi-drug resistant strain; for MIC: Mycobacterium tuberculosis, P2SP1.
In a further assay the test system is M. tuberculosis P1SP2. Kind of assay: Anti-mycobacterium in vitro activity, P1SP2. The format is cell-based, Mycobacterium tuberculosis. To be noted: Multi-drug resistant strain; for MIC: Mycobacterium tuberculosis, P1SP2.

≈ marks a conversion by molar mass, not a printed value.

Turning to `Oc1cccc2cccnc12` [Compound 10, 8-hydroxyquinoline], in the assay on M. tuberculosis P2SP1, the “M. tuberculosis MIC P2SP1” value came to 0.387 µg/mL. In the assay on M. tuberculosis P1SP2, the “M. tuberculosis MIC P1SP2” value is 0.387 µg/mL.
Consider `Oc1cccc2cccnc12` [Compound 50, 8-hydroxyquinoline], for which, in the assay with M. tuberculosis P2SP1, the “M. tuberculosis MIC P2SP1” value came out at 0.387 µg/mL. For the same molecule, the “M. tuberculosis MIC P1SP2” value with M. tuberculosis P1SP2 was determined as 0.387 µg/mL.
As for `Oc1cccc2cccnc12` [Compound 51, 8-hydroxyquinoline], the “M. tuberculosis MIC P2SP1” value in the assay with M. tuberculosis P2SP1 turned out to be 0.387 µg/mL. In addition, the “M. tuberculosis MIC P1SP2” value with M. tuberculosis P1SP2 was found to be 0.387 µg/mL.
As to `Oc1cccc2cccnc12` [Compound 53, 8-hydroxyquinoline], in the assay with M. tuberculosis P2SP1, the “M. tuberculosis MIC P2SP1” value was found to be 0.775 µg/mL. For the same molecule, in the assay with M. tuberculosis P1SP2, the “M. tuberculosis MIC P1SP2” value worked out at 0.387 µg/mL.
On the same counts, the results for `Oc1cccc2cccnc12` [Compound 55, 8-hydroxyquinoline] are 0.775 µg/mL and 0.387 µg/mL.
In the case of `Oc1cccc2cccnc12` [Compound 65, 8-hydroxyquinoline], the “M. tuberculosis MIC P2SP1” value in the assay on M. tuberculosis P2SP1 was 0.775 µg/mL. Also, the “M. tuberculosis MIC P1SP2” value with M. tuberculosis P1SP2 turned out to be 0.775 µg/mL.
On to `Oc1cccc2cccnc12` [Compound 72, 8-hydroxyquinoline], for which the “M. tuberculosis MIC P2SP1” value with M. tuberculosis P2SP1 is 0.775 µg/mL. Also, the “M. tuberculosis MIC P1SP2” value in the assay on M. tuberculosis P1SP2 was found to be 0.775 µg/mL.
For `Oc1cccc2cccnc12` [Compound 75, 8-hydroxyquinoline], in the assay on M. tuberculosis P2SP1, the “M. tuberculosis MIC P2SP1” value turned out to be 0.775 µg/mL. Besides, the “M. tuberculosis MIC P1SP2” value in the assay with M. tuberculosis P1SP2 turned out to be 0.775 µg/mL.
`CC[C@@H](CO)NCCN[C@@H](CC)CO` [Ethambutol]: the MIC against M. tuberculosis P2SP1 and in the assay with M. tuberculosis P1SP2 was 8 µg/mL (≈ 39.2 µM) each time.
For the molecule `CCc1cc(C(N)=S)ccn1` [Ethionamide], the MIC in the assay on M. tuberculosis P2SP1 was over 64 µg/mL; in the assay with M. tuberculosis P1SP2, 32 µg/mL (≈ 192 µM).
On the same counts, the results for `NNC(=O)c1ccncc1` [Isoniazid (INH), Isoniazid] are over 8 µg/mL and over 8 µg/mL.
Turning to `NC[C@H]1O[C@H](O[C@H]2[C@H](O)[C@@H](O[C@H]3O[C@H](CO)[C@@H](O)[C@H](N)[C@H]3O)[C@H](N)C[C@@H]2N)[C@H](O)[C@@H](O)[C@@H]1O` [Kanamycin], the MIC against M. tuberculosis P2SP1 and against M. tuberculosis P1SP2 was under 2 µg/mL in each case.
For the molecule `CC1COc2c(N3CCN(C)CC3)c(F)cc3c(=O)c(C(=O)O)cn1c23` (stereo not shown) [Ofloxacin], the MIC with M. tuberculosis P2SP1 was determined as 32 µg/mL (≈ 88.6 µM); with M. tuberculosis P1SP2, 16 µg/mL (≈ 44.3 µM).
On the same counts, the results for `CO[C@H]1/C=C/O[C@@]2(C)Oc3c(C)c(O)c4c(O)c(c(/C=N/N5CCN(C)CC5)c(O)c4c3C2=O)NC(=O)/C(C)=C\C=C\[C@H](C)[C@H](O)[C@@H](C)[C@@H](O)[C@@H](C)[C@H](OC(C)=O)[C@@H]1C` [Rifampicin] are 16 µg/mL (≈ 19.4 µM) and over 16 µg/mL.
On the same counts, the results for `[H]/N=C(/N)N[C@H]1[C@H](O)[C@@H](O)[C@H](O[C@@H]2O[C@@H](C)[C@](O)(C=O)[C@H]2O[C@@H]2O[C@@H](CO)[C@H](O)[C@@H](O)[C@@H]2NC)[C@@H](N/C(N)=N\[H])[C@@H]1O` [Streptomycin] are under 2 µg/mL and under 2 µg/mL.
The matching figures for `N[C@@H]1CON=C1O` [cycloserine]: 8 µg/mL (≈ 78.4 µM) and 8 µg/mL (≈ 78.4 µM).
Take `Nc1ccc(C(=O)O)c(O)c1` [p-aminosalicylate]: in the assay with M. tuberculosis P2SP1, the “M. tuberculosis MIC P2SP1” value is 32 µg/mL. Also, the “M. tuberculosis MIC P1SP2” value in the assay with M. tuberculosis P1SP2 stood at 16 µg/mL.

For the origin of these results see patent publication US7390806B2, “Antibiotics containing borinic acid complexes and methods of use” (Anacor Pharmaceuticals, Inc., priority 2002, dated 2008).
